From PubChem BioAssay AID248 (DTP/NCI, 2004)
Where “and” joins values, the source holds several entries; their conditions need not be identical. Equal entries are not always repeated. Inconclusive results and toxic doses are left out. Rule as the data show it: active = T/C of 150% or more; inactive = T/C below 125%.

Tested on: L1210 leukemia ip in BDF1 mice, survival T/C
Test: NCI In Vivo Anticancer Drug Screen. Data for tumor model L1210 Leukemia (intraperitoneal) in B6D2F1 (BDF1) mice
Conditions: endpoint: mean survival time, higher = longer survival
Outline: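 Transplantable tumor model; survival measured in treated vs vehicle control mice. Value = treated/control.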

[1] = dose: 100.0 mg/kg/injection, schedule: Q01DX001 (ip), vehicle: saline with Tween-80
[2] = dose: 200.0 mg/kg/injection, schedule: Q01DX001 (ip), vehicle: saline with Tween-80
[3] = dose: 50.0 mg/kg/injection, schedule: Q01DX001 (ip), vehicle: saline with Tween-80
[4] = dose: 100.0 mg/kg/injection, schedule: Q04DX003 (ip), vehicle: Klucel (hydroxypropylcellulose) (HPC)
[5] = dose: 100.0 mg/kg/injection, schedule: Q01DX001 (ip), vehicle: saline
[6] = dose: 200.0 mg/kg/injection, schedule: Q01DX001 (ip), vehicle: saline
[7] = dose: 400.0 mg/kg/injection, schedule: Q01DX001 (ip), vehicle: saline
[8] = dose: 100.0 mg/kg/injection, schedule: Q01DX009 (ip), vehicle: saline with Tween-80
[9] = dose: 200.0 mg/kg/injection, schedule: Q01DX009 (ip), vehicle: saline with Tween-80
[10] = dose: 400.0 mg/kg/injection, schedule: Q01DX009 (ip), vehicle: saline with Tween-80
[11] = dose: 100.0 mg/kg/injection, schedule: Q01DX009 (ip), vehicle: Klucel (hydroxypropylcellulose) (HPC)
[12] = dose: 200.0 mg/kg/injection, schedule: Q01DX009 (ip), vehicle: Klucel (hydroxypropylcellulose) (HPC)
[13] = dose: 400.0 mg/kg/injection, schedule: Q01DX009 (ip), vehicle: Klucel (hydroxypropylcellulose) (HPC)
[14] = dose: 50.0 mg/kg/injection, schedule: Q01DX009 (ip), vehicle: Klucel (hydroxypropylcellulose) (HPC)
[15] = dose: 100.0 mg/kg/injection, schedule: Q01DX009 (ip), vehicle: saline
[16] = dose: 200.0 mg/kg/injection, schedule: Q01DX009 (ip), vehicle: saline
[17] = dose: 400.0 mg/kg/injection, schedule: Q01DX009 (ip), vehicle: saline

Measured: T/C

CCC(=O)OCc1cc2ccccc2c(-c2c(OC(=O)CC)c(COC(=O)CC)cc3ccccc23)c1OC(=O)CC
inactive: [1] 106 % of control | [2] 113 % of control | dose: 400.0 mg/kg/injection, schedule: Q01DX001 (ip), vehicle: saline with Tween-80 88 % of control

CCOC(=O)C1C(=O)C(C(=O)Nc2ccccc2)C(=O)C(C(=O)OCC)C1c1ccc(OC)c(OC)c1OC (stereo unspecified)
inactive: [3] 96 % of control | [1] 100 % of control | [2] 94 % of control

COc1cc(C(=O)Cl)cc(OC)c1OC
inactive: dose: 18.75 mg/kg/injection, schedule: Q04DX003 (ip), vehicle: saline with Tween-80 107 % of control | dose: 37.5 mg/kg/injection, schedule: Q04DX003 (ip), vehicle: saline with Tween-80 102 % of control | dose: 75.0 mg/kg/injection, schedule: Q04DX003 (ip), vehicle: saline with Tween-80 95 % of control

Clc1ccc(N=Cc2ccc3c(c2)OCO3)cc1
inactive: dose: 100.0 mg/kg/injection, schedule: Q01DX009 (ip), vehicle: other 93 % of control | dose: 200.0 mg/kg/injection, schedule: Q01DX009 (ip), vehicle: other 98 % of control | dose: 400.0 mg/kg/injection, schedule: Q01DX009 (ip), vehicle: other 90 % of control

Cc1ccc(NC(=O)Nc2onc(C)c2C)c([N+](=O)[O-])c1
inactive: dose: 25.0 mg/kg/injection, schedule: Q04DX003 (ip), vehicle: Klucel (hydroxypropylcellulose) (HPC) 93 % of control | dose: 50.0 mg/kg/injection, schedule: Q04DX003 (ip), vehicle: Klucel (hydroxypropylcellulose) (HPC) 93 % of control | [4] 93 % of control and 88 % of control

O=C(CCl)c1ccc([N+](=O)[O-])o1
inactive: dose: 1.56 mg/kg/injection, schedule: Q01DX001 (ip), vehicle: Klucel (hydroxypropylcellulose) (HPC) 98 % of control | dose: 3.12 mg/kg/injection, schedule: Q01DX001 (ip), vehicle: Klucel (hydroxypropylcellulose) (HPC) 95 % of control | dose: 6.25 mg/kg/injection, schedule: Q01DX001 (ip), vehicle: Klucel (hydroxypropylcellulose) (HPC) 96 % of control

Oc1ccc(/C=N/N2CCN(/N=C/c3ccc(O)cc3O)CC2)c(O)c1
inactive: [5] 97 % of control | [6] 94 % of control | [7] 100 % of control

CCOC(=O)c1ccc(N)c(C(O)(C(F)(F)F)C(F)(F)F)c1
inactive: [8] 106 % of control | [9] 95 % of control | [10] 104 % of control

COc1cc([C@@H]2c3cc4c(cc3[C@H](O)[C@H]3COC(=O)[C@H]23)OCO4)cc(OC)c1OC
inactive: dose: 0.14 mg/kg/injection, schedule: Q01DX Z (ip), vehicle: carboxymethylcellulose (CMC) 95 % of control | dose: 0.27 mg/kg/injection, schedule: Q01DX Z (ip), vehicle: carboxymethylcellulose (CMC) 101 % of control | dose: 0.54 mg/kg/injection, schedule: Q01DX Z (ip), vehicle: carboxymethylcellulose (CMC) 108 % of control | dose: 1.08 mg/kg/injection, schedule: Q01DX Z (ip), vehicle: carboxymethylcellulose (CMC) 105 % of control and 120 % of control | dose: 1.62 mg/kg/injection, schedule: Q01DX Z (ip), vehicle: carboxymethylcellulose (CMC) 110 % of control | dose: 2.16 mg/kg/injection, schedule: Q01DX Z (ip), vehicle: carboxymethylcellulose (CMC) 95 % of control | dose: 15.0 mg/kg/injection, schedule: Q01DX001 (ip), vehicle: carboxymethylcellulose (CMC) 117 % of control | dose: 30.0 mg/kg/injection, schedule: Q01DX001 (ip), vehicle: carboxymethylcellulose (CMC) 111 % of control | dose: 60.0 mg/kg/injection, schedule: Q01DX001 (ip), vehicle: carboxymethylcellulose (CMC) 88 % of control

Cc1ccc(CNC(=O)C2CCCCC2C(=O)O)cc1 (stereo unspecified)
inactive: [11] 100 % of control | [12] 96 % of control | [13] 93 % of control

C=CCOCC(O)COP(=O)(O)O (stereo unspecified)
inactive: dose: 50.0 mg/kg/injection, schedule: Q01DX001 (ip), vehicle: saline 113 % of control | [5] 103 % of control | [6] 107 % of control | [7] 109 % of control

CC(=O)OCC1OC(Oc2ccccc2)C(OC(C)=O)C(OC(C)=O)C(OC(C)=O)C1OC(C)=O (stereo unspecified)
inactive: [14] 104 % of control | [11] 96 % of control | [12] 96 % of control

Cc1[nH]c(=O)[nH]c(=O)c1N=Nc1ccccc1
inactive: dose: 25.0 mg/kg/injection, schedule: Q01DX001 (ip), vehicle: saline with Tween-80 95 % of control | [3] 98 % of control | [1] 95 % of control

COCCCN=C(N)C(N)=NCCCOC
inactive: [15] 99 % of control | dose: 100.0 mg/kg/injection, schedule: Q04DX003 (ip), vehicle: saline 100 % of control and 98 % of control | [16] 98 % of control | dose: 200.0 mg/kg/injection, schedule: Q04DX003 (ip), vehicle: saline 93 % of control and 101 % of control | [17] 98 % of control | dose: 400.0 mg/kg/injection, schedule: Q04DX003 (ip), vehicle: saline 93 % of control and 95 % of control

CSc1ccc(NC(=O)Nc2cccc(C(C)=O)c2)cc1
inactive: [11] 97 % of control | [12] 94 % of control | [13] 91 % of control

N#CCC(C#N)N1CCCCC1 (stereo unspecified)
inactive: dose: 0.39 mg/kg/injection, schedule: Q01DX009 (ip), vehicle: other 100 % of control | dose: 0.78 mg/kg/injection, schedule: Q01DX009 (ip), vehicle: other 96 % of control | dose: 1.56 mg/kg/injection, schedule: Q01DX009 (ip), vehicle: other 94 % of control | dose: 3.12 mg/kg/injection, schedule: Q04DX003 (ip), vehicle: other 94 % of control | dose: 6.25 mg/kg/injection, schedule: Q04DX003 (ip), vehicle: other 100 % of control | dose: 12.5 mg/kg/injection, schedule: Q01DX001 (ip), vehicle: other 103 % of control | dose: 12.5 mg/kg/injection, schedule: Q04DX003 (ip), vehicle: other 100 % of control

O=C(O)C(CSSCC(NS(=O)(=O)Cc1ccccc1)C(=O)O)NS(=O)(=O)Cc1ccccc1 (stereo unspecified)
inactive: dose: 100.0 mg/kg/injection, schedule: Q04DX003 (ip), vehicle: other 97 % of control | dose: 200.0 mg/kg/injection, schedule: Q04DX003 (ip), vehicle: other 92 % of control | dose: 400.0 mg/kg/injection, schedule: Q04DX003 (ip), vehicle: other 93 % of control

O=C1OCCN1c1ccc(S(=O)(=O)c2ccc(N3CCOC3=O)cc2)cc1
inactive: [8] 98 % of control | dose: 100.0 mg/kg/injection, schedule: Q04DX003 (ip), vehicle: saline with Tween-80 102 % of control | [9] 93 % of control | dose: 200.0 mg/kg/injection, schedule: Q04DX003 (ip), vehicle: saline with Tween-80 102 % of control | [10] 95 % of control | dose: 400.0 mg/kg/injection, schedule: Q04DX003 (ip), vehicle: saline with Tween-80 96 % of control

Cc1ccc(C(=O)OCC2OC(n3cnc4c(=S)nc(N)[nH]c43)C(OC(=O)c3ccc(C)cc3)C2OC(=O)c2ccc(C)cc2)cc1 (stereo unspecified)
active: dose: 800.0 mg/kg/injection, schedule: Q01DX009 (ip), vehicle: saline 172 % of control
inactive: [5] 95 % of control | [15] 106 % of control | [6] 101 % of control | [16] 112 % of control | dose: 400.0 mg/kg/injection, schedule: Q01DX001 (ip), vehicle: carboxymethylcellulose (CMC) 111 % of control | [7] 106 % of control | [17] 116 % of control | dose: 600.0 mg/kg/injection, schedule: Q01DX001 (ip), vehicle: carboxymethylcellulose (CMC) 105 % of control | dose: 800.0 mg/kg/injection, schedule: Q01DX001 (ip), vehicle: carboxymethylcellulose (CMC) 119 % of control | dose: 1000.0 mg/kg/injection, schedule: Q01DX001 (ip), vehicle: carboxymethylcellulose (CMC) 116 % of control

Cc1cccc(NC(=O)Nc2ccccc2Cl)c1C
inactive: [11] 94 % of control | [4] 95 % of control | [12] 92 % of control | dose: 200.0 mg/kg/injection, schedule: Q04DX003 (ip), vehicle: Klucel (hydroxypropylcellulose) (HPC) 110 % of control | [13] 96 % of control | dose: 400.0 mg/kg/injection, schedule: Q04DX003 (ip), vehicle: Klucel (hydroxypropylcellulose) (HPC) 96 % of control

CCOC(=O)C1C(=O)C(C(C(=O)OC2CC(C)CCC2C(C)C)N(CCCl)CCCl)C(=O)C(C(=O)OCC)C1c1ccc(O)cc1 (stereo unspecified) (tested in a mixture with another compound)
inactive: [14] 93 % of control | [11] 109 % of control | [12] 111 % of control
